Measured values: paper PMC10587169, “Tuning aminopolycarboxylate chelators for efficient complexation of trivalent actinides” (Scientific Reports, 2023)

Experiments:
[1] = Spectrophotometric titration; assay type: binding
From the text: (§1) Changes in the optical absorption characteristics of Nd^3+ were monitored using a Cary 6000i UV/Vis–NIR Spectrometer (Agilent) using 1 cm semimicro quartz cuvettes (Starna) in double-beam mode, where the ^4I9/2 → ^4G5/2, ^2G7/2 transitions[34] were monitored between 560 and 605 nm with a 0.075 nm interval and 1.0 nm spectral bandwidth. Changes in the optical absorption characteristics of ^243Am^3+ and ^248Cm^3+ were monitored using a Flame-S-VIS–NIR-ES spectrometer coupled to a DH-2000-BAL dual-mode light source (Ocean Optics) with a single 1 cm semimicro quartz cuvette (Starna). The light source and spectrometer were optically coupled to the CUV sample (Ocean Optics) holder using 2 m fiberoptics (200 μm) and the parameters for acquisition were 0.369 nm interval and 1000 scans averaged with an integration time/scan 1.08 ms (total acquisition time ~ 1 s). The complexation of Am^3+ with the ligands was monitored in the 495–525 nm spectral region, looking at the ^7F0′ → ^5L6′ transition[23],[35]. For Cm^3+, ligand complexation was monitored in the 365–410 nm spectral region, looking at the ^8S7/2 → ^2Ji (i = {15}, {13,9}, {11,17}) manifold transitions[24],[25],[36]. Changes in aqueous p[H^+] were monitored throughout each titration step using a Gran-calibrated Orion Ross Semi-micro glass electrode. Baseline correction was applied to all datasets and was typically a simple linear subtraction. However, in the case of the ^248Cm/H4pypa-peg spectra, the tail end of the ligand absorption overlapped the hypersensitive Cm peaks. In this case the background correction was applied using a 5th-order empirical polynomial. Finally, the spectroscopic data was analyzed using the HypSpec software package[33],[37]. Full details of the titrand and titrant solutions for each titration are included in the Supplemental Information.
To further validate the competitive solvent extraction methodology the complexation of Am^3+ with H4octapa and Cm^3+ with H4pypa-peg was studied spectrophotometrically. These titrations monitored the ligand-induced changes on the optical absorption spectra of free Am^3+ at λmax = 503.0 nm, (Fig. 8A) and Cm^3+ at λmax = 375.0, 380.6, 396.5 nm, (Fig. 8C). The presence of both ligands induced new red-shifted absorption signatures in each monitored titration. […] Excellent agreement between the solvent extraction and spectrophotometry was attained for the β101 values for the formation of [Am(octapa)]^− albeit the uncertainty associated with a constant measured using competitive liquid–liquid distribution is rather large and points out the shortcomings of this method. A variance between two analytical methods is larger for [Cm(pypa-peg)]^− possibly due to free ligand absorption interferences.
2. Spectrophotometric titration parameters […]
H4octapa, at p[H+] ≈ 5.0 – 6.0. […]
Am3+: The titrand solution consisting of 0.806 mL of 0.791 mM Am(ClO4)3 at p[H+] = 1.41 was
blended with 0.787 mL of titrant solution containing 0.801 mM Am3+ and 15.09 mM
H4pypa-peg at p[H+] ≈ 5 – 6. […]

[2] = Spectrophotometric titration; assay type: binding; remark: listed apart in the source
From the text: as §1
The coordination of Nd^3+ by H4octapa and H4pypa-peg was also studied using spectroscopic methods. Figures 5A, B show the collected spectrophotometric signatures for H4octapa and H4pypa-peg, respectively.4 M^3++L^4-⇆ML^-β101=ML^-/[M^3+]L^4- 5 M^3++H^++L^4-⇆MHLaqβ111=MHLaq/[M^3+L^4-H^+]
Optical absorption features of ^4I9/2 → ^4G5/2, ^2G7/2 transitions for Nd^3+ are perturbed due to the introduction of increasing quantities of complexants, resulting in characteristic red-shifted changes. In Fig. 5A a broad absorption band with λmax = 577 nm is distinctly different to the optical absorption of free Nd^3+ metal in Fig. 5B. The differences can be attributed to the nitrate complexation of Nd^3+ as the spectrophotometric titration with H4octapa was performed in 2.0 M (Na^+/H^+)NO3. […] The HypSpec interpretation of the Nd/pypa-peg titration points to the presence of three absorbing species: Nd^3+, NdHL(aq), and NdL^−. The conditional stability constants obtained spectroscopically are listed in Table 3, showing good agreement with the stability constants determined using potentiometry. The complex stability constants for structurally similar APC ligands found in the literature are also presented (H4pypa[18] and H4py4pa[57]).
2. Spectrophotometric titration parameters
Nd3+: The titrand solution consisting of 1.980 mL of 7.57 mM Nd(ClO4)3 at p[H+] = 1.61 was blended with 1.965 mL of titrant solution containing 7.62 mM Nd3+, 18.57 mM H4octapa, […]
Am3+: The titrand solution consisting of 0.842 mL of 0.810 mM Am(ClO4)3 at p[H+] =1.66 was blended with 0.811 mL of titrant solution containing 0.815 mM Am3+, 8.95 mM H4octapa, at p[H+] ≈ 5.0 – 6.0.
Nd3+: The titrand solution consisting of 0.801 mL of 9.82 mM Nd(ClO4)3 at p[H+] = 1.61 was blended with 1.176 mL of titrant solution containing 9.91 mM Nd3+ and 24.58 mM H4pypa-peg in with p[H+] ≈ 3.0 – 4.0.
Am3+: The titrand solution consisting of 0.806 mL of 0.791 mM Am(ClO4)3 at p[H+] = 1.41 was blended with 0.787 mL of titrant solution containing 0.801 mM Am3+ and 15.09 mM H4pypa-peg at p[H+] ≈ 5 – 6.
Cm3+: The titrand solution consist ing of 0.809 mL of 1.00 mM Cm(ClO4)3 at p[H+] = 1.34 was […]

[3] = I = 2.0 M (Na+/H+)ClO4 at 20.0 °C (spectrophotometric titration)
[4] = spectrophotometrically determined in 2.0 M (Na+/H+)ClO4, 20 °C

SMILES | logβ101 (ML), Am3+ [1, 3] | logβ111 (MHL), Am3+ [1, 3] | logβ121 (MH2L), Am3+ [1, 3] | logβ101 (ML), Nd [2, 4] | logβ111 (MHL), Nd [2, 4] | logβ101 (ML), Am3+ ([1]; spectrophotometrically measured, I = 2.0 M (Na+/H+)NO3, T = 25 ± 1 °C, ±3σ) | logβ101 (ML), Nd ([2]; spectrophotometrically determined in 2.0 M (Na+/H+)NO3) | logK111, Nd ([2]; spectrophotometrically determined in 2.0 M (Na+/H+)ClO4)
O=C(O)CN(CCN(CCN(CC(=O)O)CC(=O)O)CC(=O)O)CCN(CC(=O)O)CC(=O)O [H6ttha, triethylenetetraamine-N,N,N',N'',N''',N'''-hexaacetic acid] | 23.25(3) | 27.02(3) | 28.84(2) | 21.90(7) | 25.56(7) |  |  | 
O=C(O)CN(CCN(CC(=O)O)Cc1cccc(C(=O)O)n1)Cc1cccc(C(=O)O)n1 [H4octapa, 6,6′-((ethane-1,2-diylbis–((carboxymethyl)azanediyl))bis–(methylene))dipicolinic acid] |  |  |  |  |  | 19.28 (1) | 18.15 (1) | 
O=C(O)CN(CCN(CC(=O)O)CC(=O)O)CCN(CC(=O)O)CC(=O)O [H5dtpa, diethylenetriamine-N,N,N',N'',N''-pentaacetic acid] | 21.45(1) | 22.62(2) |  | 20.23(2) | 21.59(2) |  |  | 
O=C(O)CN(Cc1cc(-c2cn(CCOCCOCCO)nn2)cc(CN(CC(=O)O)Cc2cccc(C(=O)O)n2)n1)Cc1cccc(C(=O)O)n1 [H4pypa-peg, 6,6'-((((4-(1-(2-(2-(2-hydroxyethoxy)ethoxy)ethyl)-1H-1,2,3-triazol-4-yl)pyridine-2,6-diyl)bis–(methylene))bis–((carboxymethyl)azanediyl))bis–(methylene)) dipicolinic acid] |  |  |  | 18.15 (6) | 20.04 (4) |  |  | 1.89 (6)
